Legend:
pqsA-GFP reporter = experiment: PAO1 quorum sensing reporter assay, pqsA-GFP; assay type: cell-based, Pseudomonas aeruginosa (PAO1); conditions: funalenone concentrations up to 500 μM
Protocol: (§1) Quorum sensing activity in PAO1 cells can be assessed by a the person skilled in the art, preferably by a quorum sensing reporter assay as exemplified herein. PAO1 reporters express green fluorescent protein under the control of the lasB promoter, the rhlA promoter, the pqsA promoter or a constitutive promoter, PA1/04/03. Reporter bacteria are inoculated in AB minimal media supplemented with 0.5% glucose and 0.5% casamino acids. Cultures are diluted in physiological salt solution to an OD450=0.1-0.2 before addition to AB medium with a range of concentrations of compound. The GFP fluorescence (excitation 485 nm, emission 535 nm) and absorbance (600 nm) are determined every 15 min for 15 h at 34° C. IC50 values are calculated based on the maximum slope of GFP/OD. If the IC50 on reporter lines is less than half of the IC50 on control bacteria, the compound is scored as quorum sensing inhibitor.
(§2) To test the potential of paecilomycone as quorum sensing inhibitor in more clinically relevant bacteria, the effect on P. aeruginosa (PAO1) was tested. […] To correct for potential effects on bacterial growth, the OD600 was determined in parallel with GFP fluorescence intensity and RFU/OD was plotted.

C. violaceum = experiment: Viability assay (resazurin) of C. violaceum in parallel to quorum sensing assay; assay type: cell-based, Chromobacterium violaceum; conditions: assays in parallel with the quorum sensing assays
Protocol: To ascertain that reduced OD562 signal is due to inhibition of quorum sensing and not merely due to reduced viability of bacteria, a viability assay may be done in parallel to the quorum sensing assay. To assess viability of bacteria, C. violaceum bacteria are grown o/n at 27° C. in TSB medium. The bacteria are diluted 1000× in TSB medium and grown until OD600=0.5-0.7. The bacteria are resuspended in TSB medium containing compound and incubated at 27° C. for 20 h. Bacteria are collected by centrifugation for 10 min at 3000 rpm. Supernatant is aspirated and resazurin (150 μg/mL in physiological salt solution) is added. Plates are incubated for another 45 min at 27° C. and fluorescence is measured by excitation at 540 nm and emission at 590 nm. If the fluorescent signal is less than 70% of the fluorescent signal of control untreated bacteria, the sample is scored as having an effect on viability of the bacteria.
C. violaceum bacteria were grown o/n in tryptic soy broth at 27° C. The bacteria were diluted in TSB and grown until OD600=0.5-0.7. […] The plates were centrifuged again for 10 min at 3000 rpm and 100 μL of the supernatant containing the violacein was transferred to a new 96-well plate and the violacein production was quantified by measuring the OD562 on an ASYS expert plus microplate reader. […]

lasB-GFP reporter = experiment: PAO1 quorum sensing reporter assay, lasB-GFP; assay type: cell-based, Pseudomonas aeruginosa (PAO1); conditions: funalenone concentrations up to 500 μM
Protocol: as §1, §2

[1] = test system: violacein production in C. violaceum; experiment: Quorum sensing assay: violacein production in C. violaceum; assay type: cell-based, Chromobacterium violaceum; conditions: funalenone up to 1 mM
Protocol: C. violaceum bacteria were grown o/n in tryptic soy broth at 27° C. The bacteria were diluted in TSB and grown until OD600=0.5-0.7. Bacteria were diluted 1:1000 and 50 μL bacterial suspension was transferred to 96-well plates containing 50 μL fungal filtrate, extract or purified compound in a range of concentrations. […] Plates were incubated for 20 h at 27° C. while shaking at 180 rpm. Plates were centrifuged for 10 min at 3000 rpm to precipitate the violacein. Supernatant was aspirated and the pellet was resuspended in 200 μL 96% ethanol. The plates were centrifuged again for 10 min at 3000 rpm and 100 μL of the supernatant containing the violacein was transferred to a new 96-well plate and the violacein production was quantified by measuring the OD562 on an ASYS expert plus microplate reader.

rhlA-GFP reporter = experiment: PAO1 quorum sensing reporter assay, rhlA-GFP; assay type: cell-based, Pseudomonas aeruginosa (PAO1); conditions: funalenone concentrations up to 500 μM
Protocol: as §1, §2

WT-GFP = assay type: cell-based, Pseudomonas aeruginosa (PAO1); conditions: funalenone concentrations up to 500 μM
Protocol: as §1, §2

COC1=C(O)c2c(O)cc(C)c3c(O)cc(O)c(c23)C1=O [funalenone]
Effect on quorum sensing, pqsA-GFP reporter (pqsA-GFP reporter): no effects on quorum sensing | Effect on cell viability of C. violaceum (C. violaceum): did not affect cell viability | Effect on quorum sensing, lasB-GFP reporter (lasB-GFP reporter): no effects on quorum sensing | Inhibition of violacein production [1]: did not inhibit violacein production | Effect on quorum sensing, rhlA-GFP reporter (rhlA-GFP reporter): no effects on quorum sensing | Effect on control WT-GFP reporter (WT-GFP): no effects on quorum sensing
